Legend:
[1] = tested on: Tgfβ1, Timp1, Timp2, Mmp3, Ggtp mRNA in rat liver; experiment: Q-RT-PCR of liver mRNA in DMN-treated rats; type: in vivo
Description: To gain additional information about the established animal model, Q-RT-PCR was used to evaluate the gene expression profile of transforming growth factor-1 (Tgfβ1), which is the strongest known inducer of fibrogenesis in the effector cells of hepatic fibrosis that can stimulate the adipocyte transformation (24-27). The same total RNA samples were used for both microarray and Q-RT-PCR analyses. RNA preparation and analysis were performed according to Affymetrix's (Santa Clara, Calif., U.S.A.) instructions. The TAQMAN® assays were conducted in triplicate for each sample, and a mean value was used for calculation of expression levels. To standardize the quantification of the target genes, 18S ribosomal RNA (18S rRNA) from each sample was quantified on the same plate with the target genes. […] The changes were in agreement with observations described in Jezequel A. M. et al. (14). In sum, these examinations support the DMN-induced rat hepatic fibrosis model.
To validate the microarray data, Q-RT-PCR analysis was performed for tissue inhibitor of metalloproteinase 1 (Timp1), tissue inhibitor of metalloproteinase 2 (Timp2), matrix metalloproteinase 3 (Mmp3) and gamma-glutamyl transpeptidase (Ggtp). These genes were chosen for validation because these genes occurred both in this GeneChip study and in previous studies.
Moreover, a good concordance based on the fold changes between microarray data and Q-RT-PCR results was observed. […] TAQMAN® assays were conducted in triplicate for each sample, and a mean value was used for calculation of expression levels (marked by the square). To standardize the quantification of the Timp1 transcript, 18S rRNA from each sample was quantified on the same plate as the target gene, as indicated by the log scale on the right side of plot. The expression levels of the two Timp1 transcripts, rc_AI169327_at and rc_AI169327_g_at (marked by a circle and a triangle, respectively), were set forth relative to the mean of all gene expression levels as indicated by the scale on the left side of plot.

Male Sprague-Dawley rats = experiment: Serum biochemical analysis in DMN-induced rat hepatic fibrosis model; type: in vivo; conditions: DMN-treatment, mean ± SD; for PT (prothrombin time): rat blood; for ACP (acid phosphatase) / AFP (a-fetoprotein) / AKP (alkaline phosphatase) / Albumin / BUN (blood urea nitrogen) / Bilirubin (total bilirubin) / CHOL (cholesterol) / GOT (glutamic oxaloacetic transaminase) / GPT (glutamic pyruvic transaminase) / Globulin / LDH (lactate dehydrogenase): rat serum
Description: A rat hepatic fibrosis model was set up through the use of DMN. DMN is a potent hepatoxin that specifically targets the liver and can cause liver fibrosis. The histopathological changes resulting from DMN treatment involve the rapid deposition of collagen, the major protein of fibrosis and important to the process of cirrhosis. […] The DMN-induced liver fibrosis model was performed as described in Jezequel A. M. et al. (14). Male Sprague-Dawley rats (Slc:SD; Japan SLC, Shizuoka, Japan), weighing from 300 to 350 grams, were used in the experiments. To induce hepatic fibrosis over a six-week time course experiment, the rats were given DMN (Sigma, Saint Louis, Mo.), dissolved in normal saline, three consecutive days a week for the first three consecutive weeks at the dosage of 6.7 mg/kg per body weight by intraperitoneal injection. Injection time points are shown as inverted triangles in FIG. 1. Injections were at a much lower dosage than those used in other experiments where the dosage was 100 mg/kg/day. The higher dosage can cause toxicity in rat liver (21, 22).)
Two to seven rats at each time point were treated with either DMN or with an equal volume of normal saline without DMN as the control (26 DMN-treated rats and 24 control rats). Rats were weighed and sacrificed on days 11, 18, 25, 32, 39, and 46 (sacrifice time points are shown as triangles in FIG. 1A) respectively. These triangular time points were designated as weeks 1 through 6 (FIG. 1A).
The serum of each rat, 50 rats in total, was subjected to various biochemical examinations related to liver damages. Blood samples, collected from the animals at necropsy, were used to measure serum concentrations or activity of albumin, glutamic oxaloacetic transaminase (GOT), glutamic pyruvic transaminase (GPT), total bilirubin, alkaline phosphatase (AKP), acid phosphatases (ACP), α-fetoprotein (AFP), blood urea nitrogen (BUN), cholesterol (CHOL), lactate dehydrogenase (LDH), globulin, prothrombin time (PT) and blood platelets (PLT) using an Hitachi 747 and ACL 3000 clinical chemistry analyzer system (MYCO, Renton, Wash.). […] The thirteen serum markers identified in these experiments are the same serum markers for human liver fibrosis.

[2] = Q-RT-PCR, DMN-treated samples, data not shown

How did the “Tgfβ1 mRNA expression in liver vs controls” value ([1]; Q-RT-PCR, DMN-treated rat livers) turn out when `CN(C)N=O` [DMN, Dimethylnitrosamine] was run?
Its value is “higher level of mRNA expression”.

What about the Ggtp expression [1, 2] of the same compound?
Its Ggtp expression is “elevated”.

What about the Mmp3 expression [1, 2] of the same compound?
Its Mmp3 expression is “elevated”.

And the Timp2 expression [1, 2]?
Its Timp2 expression is “elevated”.

And the “Timp1 expression elevation in DMN-treated rats” value ([1]; both microarray and Q-RT-PCR experiments)?
Its value is “over 20 fold”.

And the “PT (prothrombin time)” value (Male Sprague-Dawley rats; 1-2 wk)?
Its value is 18 ± 4 (8) sec.

What about the “PT (prothrombin time)” value (Male Sprague-Dawley rats; 3-4 wk) of the same compound?
Its value is 20 ± 4 (9) sec.

And the “PT (prothrombin time)” value (Male Sprague-Dawley rats; 5-6 wk)?
Its value is 22 ± 5 (6) sec.

And the “ACP (acid phosphatase)” value (Male Sprague-Dawley rats; 1-2 wk)?
The value was 1.9 ± 0.6 (4) mg/dl.

What about the “AFP (a-fetoprotein)” value (Male Sprague-Dawley rats; 1-2 wk) of the same compound?
The value was 0.40 ± 0.19 (4) ng/dl.

What about the “AKP (alkaline phosphatase)” value (Male Sprague-Dawley rats; 1-2 wk) of the same compound?
The value was 600.8 ± 93.0 (4) KA.

And the Albumin (Male Sprague-Dawley rats; 1-2 wk)?
Its Albumin is 3.9 ± 0.7 (7) g/dl.

What about the “BUN (blood urea nitrogen)” value (Male Sprague-Dawley rats; 1-2 wk) of the same compound?
The value was 33 ± 4 (4) mg/dl.

What about the “Bilirubin (total bilirubin)” value (Male Sprague-Dawley rats; 1-2 wk) of the same compound?
The value was 0.72 ± 0.53 (8) mg/dl.

What about the “CHOL (cholesterol)” value (Male Sprague-Dawley rats; 1-2 wk) of the same compound?
Its value is 77 ± 8 (4) mg/dl.

What about the “GOT (glutamic oxaloacetic transaminase)” value (Male Sprague-Dawley rats; 1-2 wk) of the same compound?
The value was 661.5 ± 134.4 (8) U/l.

And the “GPT (glutamic pyruvic transaminase)” value (Male Sprague-Dawley rats; 1-2 wk)?
The value was 459.5 ± 78.5 (8) U/l.

What about the Globulin (Male Sprague-Dawley rats; 1-2 wk) of the same compound?
The Globulin was 6.7 ± 0.1 (2) g/dl.

What about the “LDH (lactate dehydrogenase)” value (Male Sprague-Dawley rats; 1-2 wk) of the same compound?
Its value is 414.8 ± 102.7 (4) IU/l.

What about the “ACP (acid phosphatase)” value (Male Sprague-Dawley rats; 3-4 wk) of the same compound?
Its value is 6.2 ± 1.1 (4) mg/dl.

What about the “AFP (a-fetoprotein)” value (Male Sprague-Dawley rats; 3-4 wk) of the same compound?
Its value is 0.38 ± 0.05 (4) ng/dl.

What about the “AKP (alkaline phosphatase)” value (Male Sprague-Dawley rats; 3-4 wk) of the same compound?
The value was 668.3 ± 222.0 (3) KA.

What about the Albumin (Male Sprague-Dawley rats; 3-4 wk) of the same compound?
The Albumin was 3.5 ± 0.6 (11) g/dl.

And the “BUN (blood urea nitrogen)” value (Male Sprague-Dawley rats; 3-4 wk)?
Its value is 36 ± 2 (4) mg/dl.

What about the “Bilirubin (total bilirubin)” value (Male Sprague-Dawley rats; 3-4 wk) of the same compound?
The value was 1.01 ± 0.74 (11) mg/dl.

And the “CHOL (cholesterol)” value (Male Sprague-Dawley rats; 3-4 wk)?
The value was 70 ± 13 (6) mg/dl.

And the “GOT (glutamic oxaloacetic transaminase)” value (Male Sprague-Dawley rats; 3-4 wk)?
Its value is 1006.1 ± 749.6 (11) U/l.

What about the “GPT (glutamic pyruvic transaminase)” value (Male Sprague-Dawley rats; 3-4 wk) of the same compound?
Its value is 566.6 ± 313.5 (11) U/l.

What about the Globulin (Male Sprague-Dawley rats; 3-4 wk) of the same compound?
The Globulin was 5.0 ± 0.8 (4) g/dl.

And the “LDH (lactate dehydrogenase)” value (Male Sprague-Dawley rats; 3-4 wk)?
Its value is 562.0 ± 120.8 (3) IU/l.

And the “ACP (acid phosphatase)” value (Male Sprague-Dawley rats; 5-6 wk)?
Its value is 8.2 ± 0.6 (2) mg/dl.

And the “AFP (a-fetoprotein)” value (Male Sprague-Dawley rats; 5-6 wk)?
The value was 0.35 ± 0.07 (2) ng/dl.

And the “AKP (alkaline phosphatase)” value (Male Sprague-Dawley rats; 5-6 wk)?
Its value is 468 ± 12.7 (2) KA.

What about the Albumin (Male Sprague-Dawley rats; 5-6 wk) of the same compound?
Its Albumin is 3.2 ± 0.1 (7) g/dl.

What about the “BUN (blood urea nitrogen)” value (Male Sprague-Dawley rats; 5-6 wk) of the same compound?
Its value is 31 ± 5 (2) mg/dl.

And the “Bilirubin (total bilirubin)” value (Male Sprague-Dawley rats; 5-6 wk)?
Its value is 1.13 ± 1.00 (7) mg/dl.

What about the “CHOL (cholesterol)” value (Male Sprague-Dawley rats; 5-6 wk) of the same compound?
Its value is 67 ± 18 (5) mg/dl.

And the “GOT (glutamic oxaloacetic transaminase)” value (Male Sprague-Dawley rats; 5-6 wk)?
The value was 1572.9 ± 965.3 (7) U/l.

What about the “GPT (glutamic pyruvic transaminase)” value (Male Sprague-Dawley rats; 5-6 wk) of the same compound?
The value was 763.6 ± 405.2 (7) U/l.

And the Globulin (Male Sprague-Dawley rats; 5-6 wk)?
Its Globulin is 3.6 ± 0.3 (2) g/dl.

What about the “LDH (lactate dehydrogenase)” value (Male Sprague-Dawley rats; 5-6 wk) of the same compound?
The value was 853.5 ± 91.2 (2) IU/l.

Reference: patent US7972785B2, “Biomarkers for liver fibrotic injury” (Industrial Technology Research Institute (ITRI), priority 2006, dated 2011)
